The results in this text go back to US20250145585A1, “HETEROCYCLIC INHIBITORS OF IGF-1R FOR TREATMENT OF DISEASE” (HORIZON THERAPEUTICS IRELAND DAC, priority 2023, published 2025).

The target of assay [1] is T1, IGF-1R (Homo sapiens, UniProt P08069).
T1 construct: expressed in transfected cells
Description: Example B-2: IGF-1R Assay (PathHunter cell lines, EC80 agonist challenge, chemiluminescent detection). Type of assay: cell-based. The settings on record: PathHunter cells, compound 60 minutes at 37° C., EC80 agonist 3 hours; read-out: IC50, Biological Activity against IGF-1R (Table B2). In short, it runs like this: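 Read-out is PathHunter chemiluminescence, developed for 1 h at room temperature after a 3 h room-temperature EC80 agonist challenge that followed 60 min compound pre-treatment at 37° C (1% vehicle). IC50 comes from % inhibition normalized to EC80 and vehicle controls.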

In assay [2] the target is T1, IGF-1R. Description: Example B-1: IGF-1R Assay (PC3 cells stimulated with IGF1, AlphaLISA on cell lysates). It is filed as cell-based. The settings on record: compound two hours, IGF1 200 ng/mL for 30 min, read-out: IC50, Biological Activity against IGF-1R (Table B1). In short, it runs like this:
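IC50 from AlphaLISA read-out of lysed PC3 cells, percent inhibition normalized between vehicle and EC80 controls. Before lysis, cells had 2 h serum-free starvation, 2 h exposure to compound in 3× dilution series, and 30 min IGF1 stimulation at final 200 ng/mL.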

Where only a bound is given, the exact number is not on record here.

T1 sequence (P08069 31-1367): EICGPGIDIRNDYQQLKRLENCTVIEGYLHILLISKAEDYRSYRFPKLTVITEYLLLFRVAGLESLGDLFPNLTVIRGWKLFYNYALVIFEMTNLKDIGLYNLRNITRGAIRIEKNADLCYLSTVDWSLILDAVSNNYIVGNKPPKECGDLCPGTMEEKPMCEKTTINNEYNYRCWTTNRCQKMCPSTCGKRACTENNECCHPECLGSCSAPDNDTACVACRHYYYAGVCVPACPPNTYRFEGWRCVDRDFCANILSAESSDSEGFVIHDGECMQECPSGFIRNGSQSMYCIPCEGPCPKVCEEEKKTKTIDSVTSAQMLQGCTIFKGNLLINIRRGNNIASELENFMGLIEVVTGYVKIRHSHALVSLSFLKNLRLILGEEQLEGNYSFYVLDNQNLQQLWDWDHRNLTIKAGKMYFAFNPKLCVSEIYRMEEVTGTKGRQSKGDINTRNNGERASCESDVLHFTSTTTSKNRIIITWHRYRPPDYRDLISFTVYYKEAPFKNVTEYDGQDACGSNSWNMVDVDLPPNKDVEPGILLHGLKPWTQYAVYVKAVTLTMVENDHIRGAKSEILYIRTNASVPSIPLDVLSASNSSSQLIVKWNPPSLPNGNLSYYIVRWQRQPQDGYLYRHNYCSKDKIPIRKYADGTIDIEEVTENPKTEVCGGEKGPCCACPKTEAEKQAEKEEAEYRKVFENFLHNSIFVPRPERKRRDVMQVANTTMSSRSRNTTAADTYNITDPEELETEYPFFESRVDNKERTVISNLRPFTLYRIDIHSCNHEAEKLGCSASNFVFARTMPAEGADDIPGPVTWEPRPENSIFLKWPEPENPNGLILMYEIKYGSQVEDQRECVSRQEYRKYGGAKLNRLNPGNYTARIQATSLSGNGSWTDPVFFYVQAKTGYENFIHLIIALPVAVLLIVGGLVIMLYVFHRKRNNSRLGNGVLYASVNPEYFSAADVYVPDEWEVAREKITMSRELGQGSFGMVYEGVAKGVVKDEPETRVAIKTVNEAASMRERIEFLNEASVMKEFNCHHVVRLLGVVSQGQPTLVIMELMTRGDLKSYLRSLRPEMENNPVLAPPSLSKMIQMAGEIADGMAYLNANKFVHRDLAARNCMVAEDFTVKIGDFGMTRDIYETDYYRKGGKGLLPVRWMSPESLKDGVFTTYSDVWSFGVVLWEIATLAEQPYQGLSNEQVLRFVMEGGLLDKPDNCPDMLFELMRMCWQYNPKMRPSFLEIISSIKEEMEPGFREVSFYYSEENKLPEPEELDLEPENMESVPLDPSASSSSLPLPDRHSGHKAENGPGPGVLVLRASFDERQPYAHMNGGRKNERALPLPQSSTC

Usually IC50 stands for the concentration that gives 50% inhibition. As to `CC(C)Nc1cc(CN2C(=O)N(c3ccc(C4(C#N)CCCC4)cc3)C(=O)C2(C)C)ccn1` [Compound 131, 1-(4-(3-((2-(isopropylamino)pyridin-4-yl)methyl)-4,4-dimethyl-2,5-dioxoimidazolidin-1-yl)phenyl)cyclopentane-1-carbonitrile], the half-inhibitory concentration (IC50) on IGF-1R [1] and on IGF-1R [2] was at most 500 nM throughout. In the case of `CC1(C)C(=O)Nc2nccc(CN3C(=O)N(c4ccc(SC(F)(F)F)cc4)C(=O)C3(C)C)c21` [Compound 19, 1-((3,3-dimethyl-2-oxo-2,3-dihydro-1H-pyrrolo[2,3-b]pyridin-4-yl)methyl)-5,5-dimethyl-3-(4-((trifluoromethyl)thio)phenyl)imidazolidine-2,4-dione], the IC50 at IGF-1R [1] and at IGF-1R [2] was at most 500 nM each time. Regarding `C[C@@H](CC#N)Nc1cc(CN2C(=O)N(c3ccc(C(C)(C)C)cc3)C(=O)C2(C)C)ccn1` [Compound 278, (S)-3-((4-((3-(4-(tert-butyl)phenyl)-5,5-dimethyl-2,4-dioxoimidazolidin-1-yl)methyl)pyridin-2-yl)amino)butanenitrile], the values for the IC50 at IGF-1R [1] and on IGF-1R [2] were 500 to 2000 nM and at most 500 nM, respectively. `CC(C)Nc1cc(CN2C(=O)N(c3ccc4c(c3)C(=O)N(C)C4(C)C)C(=O)C2(C)C)ccn1` [Compound 186, 1-((2-(isopropylamino)pyridin-4-yl)methyl)-5,5-dimethyl-3-(1,1,2-trimethyl-3-oxoisoindolin-5-yl)imidazolidine-2,4-dione]: the IC50 on IGF-1R [1] and on IGF-1R [2] was 2000 to 10000 nM in each case. As to `CC(C)Nc1cc(CN2C(=O)N(c3ccc4c(c3)N(C)CC4(C)C)C(=O)C2(C)C)ccn1` [Compound 188, 1-((2-(isopropylamino)pyridin-4-yl)methyl)-5,5-dimethyl-3-(1,3,3-trimethylindolin-6-yl)imidazolidine-2,4-dione], the IC50 on IGF-1R [1] and at IGF-1R [2] was at most 500 nM each time. As for `CC(C)[C@@H]1C(=O)N(c2ccc(SC(F)(F)F)cc2)C(=O)N1Cc1ccnc(N)c1` [Compound 295, (R)-1-((2-aminopyridin-4-yl)methyl)-5-isopropyl-3-(4-((trifluoromethyl)thio)phenyl)imidazolidine-2,4-dione], the IC50 on IGF-1R [2] was in the range of 2000 to 10000 nM.

With `CC(C)Nc1cc(CN2C(=O)N(c3ccc(C4CC4(C)C)cc3)C(=O)C2(C)C)ccn1` (centres unmarked) [Compound 108, 3-(4-(2,2-dimethylcyclopropyl)phenyl)-1-((2-(isopropylamino)pyridin-4-yl)methyl)-5,5-dimethylimidazolidine-2,4-dione], at IGF-1R [2], the IC50 is at most 500 nM. On the same count and under the same terms, with `CN1CCC(NC(=O)Nc2cc(CN3C(=O)N(c4ccc(SC(F)(F)F)cc4)C(=O)C3(C)C)ccn2)CC1` [Compound 309, 1-(4-((5,5-dimethyl-2,4-dioxo-3-(4-((trifluoromethyl)thio)phenyl)imidazolidin-1-yl)methyl)pyridin-2-yl)-3-(1-methylpiperidin-4-yl)urea] the figure was at most 500 nM; with `CC1(C)C(=O)N(c2ccc(SC(F)(F)F)cc2)C(=O)N1Cc1ccnc(N)c1F` [Compound 380, 1-((2-amino-3-fluoropyridin-4-yl)methyl)-5,5-dimethyl-3-(4-((trifluoromethyl)thio)phenyl) imidazolidine-2,4-dione], at most 500 nM. As for `CC(C)(C)c1ccc(N2C(=O)N(Cc3ccnc4[nH]ccc34)C(C)(C)C2=O)cc1` [Compound 4], at IGF-1R [2], the IC50 was at most 500 nM. On to `CCC1(C)C(=O)N(c2ccc(SC(F)(F)F)cc2)C(=O)N1Cc1ccnc(N)c1` (centres unmarked) [Compound 297, 1-((2-aminopyridin-4-yl)methyl)-5-ethyl-5-methyl-3-(4-((trifluoromethyl)thio)phenyl)imidazolidine-2,4-dione], for which the IC50 at IGF-1R [2] was at most 500 nM. Turning to `CC1(C)C(=O)N(c2ccc(SC(F)(F)F)cc2)C(=O)N1Cc1ccnc(NCC(F)F)c1` [Compound 315, 1-((2-((2,2-difluoroethyl)amino)pyridin-4-yl)methyl)-5,5-dimethyl-3-(4-((trifluoromethyl)thio)phenyl) imidazolidine-2,4-dione], the IC50 at IGF-1R [2] was at most 500 nM.
